From ChEMBL document CHEMBL5696442, “Discovery of type II inhibitors of TGFβ-activated kinase 1 (TAK1) and mitogen-activated protein kinase kinase kinase kinase 2 (MAP4K2)” (J Med Chem, 2015)
Active and inactive are the calls of the source. The rule behind the calls is not given here.

Key:
[1] = molecular target: T1, Serine/threonine-protein kinase Chk1 (Homo sapiens) (UniProt O14757); assay: Inhibition of CHK1 Lys2 labeling site in human Huh-7 cell lysate at 1 uM by KiNativ Profiling analysis relative to control; type: subcellular
T1 sequence (whole entry): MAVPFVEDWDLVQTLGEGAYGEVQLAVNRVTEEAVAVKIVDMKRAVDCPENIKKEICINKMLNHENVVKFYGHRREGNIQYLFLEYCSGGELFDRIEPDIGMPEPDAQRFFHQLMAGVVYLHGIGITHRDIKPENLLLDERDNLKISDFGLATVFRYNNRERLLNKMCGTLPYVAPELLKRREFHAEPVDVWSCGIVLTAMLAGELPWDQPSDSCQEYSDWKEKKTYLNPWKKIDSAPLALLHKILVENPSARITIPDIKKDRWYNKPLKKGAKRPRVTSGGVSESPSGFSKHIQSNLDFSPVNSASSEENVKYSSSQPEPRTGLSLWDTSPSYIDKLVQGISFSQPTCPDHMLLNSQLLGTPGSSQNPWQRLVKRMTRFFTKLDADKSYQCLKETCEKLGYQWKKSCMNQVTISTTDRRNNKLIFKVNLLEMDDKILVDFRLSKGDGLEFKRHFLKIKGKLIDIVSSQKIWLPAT

[2] = molecular target: Ribosomal protein S6 kinase delta-1 (Homo sapiens) (UniProt Q96S38); assay: Inhibition of RSKL1 domain1 Protein Kinase Domain labeling site in human Huh-7 cell lysate at 1 uM by KiNativ Profiling analysis relative to control; type: subcellular
[3] = molecular target: T2, Serine/threonine-protein kinase LATS2 (Homo sapiens) (UniProt Q9NRM7); assay: Inhibition of LATS2 (unknown origin) at 10 uM by Ambit Kinomescan binding assay relative to control
T2 sequence (whole entry): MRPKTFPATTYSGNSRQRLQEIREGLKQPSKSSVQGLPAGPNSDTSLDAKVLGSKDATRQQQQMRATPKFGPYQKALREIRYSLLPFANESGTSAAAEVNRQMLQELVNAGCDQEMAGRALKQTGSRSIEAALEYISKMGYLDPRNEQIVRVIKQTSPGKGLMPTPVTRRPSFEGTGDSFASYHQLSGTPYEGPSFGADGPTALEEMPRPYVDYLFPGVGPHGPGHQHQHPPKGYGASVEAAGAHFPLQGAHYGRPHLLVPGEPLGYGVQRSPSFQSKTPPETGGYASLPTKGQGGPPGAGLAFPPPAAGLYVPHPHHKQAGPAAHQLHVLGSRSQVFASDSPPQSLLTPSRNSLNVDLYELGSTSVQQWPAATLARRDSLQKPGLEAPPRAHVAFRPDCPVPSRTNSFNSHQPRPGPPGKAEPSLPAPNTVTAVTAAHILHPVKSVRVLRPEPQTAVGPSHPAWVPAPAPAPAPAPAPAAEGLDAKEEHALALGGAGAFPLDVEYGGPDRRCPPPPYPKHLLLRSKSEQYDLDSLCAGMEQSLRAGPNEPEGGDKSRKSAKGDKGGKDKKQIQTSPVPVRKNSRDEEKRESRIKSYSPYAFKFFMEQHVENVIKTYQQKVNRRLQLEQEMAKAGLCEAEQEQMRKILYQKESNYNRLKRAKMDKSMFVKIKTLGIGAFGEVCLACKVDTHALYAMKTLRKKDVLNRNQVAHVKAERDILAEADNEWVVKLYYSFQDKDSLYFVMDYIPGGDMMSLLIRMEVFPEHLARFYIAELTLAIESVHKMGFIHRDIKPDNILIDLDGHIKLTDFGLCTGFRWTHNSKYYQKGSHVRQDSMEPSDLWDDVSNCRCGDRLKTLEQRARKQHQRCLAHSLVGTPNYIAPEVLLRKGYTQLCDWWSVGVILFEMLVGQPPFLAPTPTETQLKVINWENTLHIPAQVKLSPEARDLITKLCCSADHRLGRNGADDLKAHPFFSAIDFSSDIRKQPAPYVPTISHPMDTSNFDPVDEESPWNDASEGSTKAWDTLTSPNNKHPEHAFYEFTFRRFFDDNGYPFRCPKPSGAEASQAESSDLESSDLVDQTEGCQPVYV

[4] = molecular target: SRSF protein kinase 1 (Homo sapiens) (UniProt Q96SB4); assay: Inhibition of SRPK1 (unknown origin) at 10 uM by Ambit Kinomescan binding assay
[5] = molecular target: Serine/threonine-protein kinase Nek5 (Homo sapiens) (UniProt Q6P3R8); assay: Inhibition of NEK5 (unknown origin) at 10 uM by Ambit Kinomescan binding assay
[6] = molecular target: Cyclin-dependent kinase 9 (Homo sapiens) (UniProt P50750); assay: Inhibition of CDK9 K2 labeling site in human Huh-7 cells at 10 uM by KiNativ Profiling analysis relative to control; type: cell-based
[7] = molecular target: Calcium/calmodulin-dependent protein kinase type II subunit delta (Homo sapiens) (UniProt Q13557); assay: Inhibition of CAMK2d K1 labeling site harbouring IPTGQEYAAKIINTKK in human Huh-7 cells at 1 uM by KiNativ Profiling analysis relative to control; type: cell-based
[8] = molecular target: Ribosomal protein S6 kinase alpha-3 (Homo sapiens) (UniProt P51812); assay: Inhibition of RSK2 Domain 1 ACT labeling site harbouring LTDFGLSKESIDHEK in human Huh-7 cells at 10 uM by KiNativ Profiling analysis relative to control; type: cell-based
[9] = molecular target: T3, Mitogen-activated protein kinase kinase kinase kinase 2 (Homo sapiens) (UniProt Q12851); assay: Inhibition of MAP4K2 Lys2 labeling site in human A-375 cells at 5 uM by KiNativ Profiling analysis relative to control; type: cell-based
T3 sequence (whole entry): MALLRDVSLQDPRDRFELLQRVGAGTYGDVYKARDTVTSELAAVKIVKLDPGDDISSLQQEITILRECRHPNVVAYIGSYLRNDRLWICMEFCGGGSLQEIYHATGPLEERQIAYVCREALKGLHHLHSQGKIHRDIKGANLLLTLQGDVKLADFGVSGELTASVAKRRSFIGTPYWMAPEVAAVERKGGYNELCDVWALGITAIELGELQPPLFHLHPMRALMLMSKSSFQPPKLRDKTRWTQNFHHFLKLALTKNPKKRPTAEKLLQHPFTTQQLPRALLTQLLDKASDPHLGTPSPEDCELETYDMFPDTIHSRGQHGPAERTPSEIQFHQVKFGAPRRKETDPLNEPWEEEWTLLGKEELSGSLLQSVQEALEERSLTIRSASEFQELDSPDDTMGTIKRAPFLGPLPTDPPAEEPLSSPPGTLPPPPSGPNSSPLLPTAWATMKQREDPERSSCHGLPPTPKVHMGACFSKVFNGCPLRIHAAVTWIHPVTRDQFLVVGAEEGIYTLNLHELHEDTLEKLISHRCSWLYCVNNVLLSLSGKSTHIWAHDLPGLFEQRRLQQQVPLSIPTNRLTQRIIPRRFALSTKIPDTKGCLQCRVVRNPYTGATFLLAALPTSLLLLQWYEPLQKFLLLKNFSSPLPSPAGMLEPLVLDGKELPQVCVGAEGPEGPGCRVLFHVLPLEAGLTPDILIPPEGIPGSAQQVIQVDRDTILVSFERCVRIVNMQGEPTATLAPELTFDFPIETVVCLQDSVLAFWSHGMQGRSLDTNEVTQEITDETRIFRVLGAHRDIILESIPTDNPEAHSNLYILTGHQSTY

Sequence of Ribosomal protein S6 kinase alpha-3 (Homo sapiens) (P51812 whole entry, the tested form may be a part): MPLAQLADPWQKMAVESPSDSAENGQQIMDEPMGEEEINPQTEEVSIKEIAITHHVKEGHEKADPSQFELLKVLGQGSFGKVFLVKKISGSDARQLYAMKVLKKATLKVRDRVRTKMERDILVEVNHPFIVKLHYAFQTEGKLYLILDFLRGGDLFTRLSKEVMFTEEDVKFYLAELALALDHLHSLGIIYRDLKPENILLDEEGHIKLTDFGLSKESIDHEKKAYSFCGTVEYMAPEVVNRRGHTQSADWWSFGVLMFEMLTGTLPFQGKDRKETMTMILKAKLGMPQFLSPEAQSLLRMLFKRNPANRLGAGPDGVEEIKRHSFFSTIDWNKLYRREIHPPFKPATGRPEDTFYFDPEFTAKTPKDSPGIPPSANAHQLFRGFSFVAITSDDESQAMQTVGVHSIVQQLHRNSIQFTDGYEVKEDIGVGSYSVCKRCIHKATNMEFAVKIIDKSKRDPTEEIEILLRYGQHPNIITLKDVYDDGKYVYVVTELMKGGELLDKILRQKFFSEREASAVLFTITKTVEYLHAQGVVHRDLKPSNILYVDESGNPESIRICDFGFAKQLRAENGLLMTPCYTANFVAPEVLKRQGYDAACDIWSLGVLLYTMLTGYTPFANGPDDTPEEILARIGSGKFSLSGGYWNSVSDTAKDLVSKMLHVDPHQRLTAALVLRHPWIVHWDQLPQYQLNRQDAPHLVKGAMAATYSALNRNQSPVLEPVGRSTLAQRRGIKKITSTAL
Sequence of Cyclin-dependent kinase 9 (Homo sapiens) (P50750 whole entry): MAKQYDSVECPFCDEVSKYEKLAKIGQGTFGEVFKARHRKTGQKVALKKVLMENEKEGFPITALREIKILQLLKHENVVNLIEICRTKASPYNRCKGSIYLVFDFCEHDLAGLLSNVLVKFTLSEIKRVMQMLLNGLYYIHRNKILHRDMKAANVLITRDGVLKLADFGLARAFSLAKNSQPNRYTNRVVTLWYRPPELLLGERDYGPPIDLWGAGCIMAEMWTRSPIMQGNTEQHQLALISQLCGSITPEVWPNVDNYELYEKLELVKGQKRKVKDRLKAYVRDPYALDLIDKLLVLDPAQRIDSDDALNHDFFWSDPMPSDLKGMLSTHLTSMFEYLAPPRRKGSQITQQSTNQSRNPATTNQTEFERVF
Sequence of SRSF protein kinase 1 (Homo sapiens) (Q96SB4 whole entry): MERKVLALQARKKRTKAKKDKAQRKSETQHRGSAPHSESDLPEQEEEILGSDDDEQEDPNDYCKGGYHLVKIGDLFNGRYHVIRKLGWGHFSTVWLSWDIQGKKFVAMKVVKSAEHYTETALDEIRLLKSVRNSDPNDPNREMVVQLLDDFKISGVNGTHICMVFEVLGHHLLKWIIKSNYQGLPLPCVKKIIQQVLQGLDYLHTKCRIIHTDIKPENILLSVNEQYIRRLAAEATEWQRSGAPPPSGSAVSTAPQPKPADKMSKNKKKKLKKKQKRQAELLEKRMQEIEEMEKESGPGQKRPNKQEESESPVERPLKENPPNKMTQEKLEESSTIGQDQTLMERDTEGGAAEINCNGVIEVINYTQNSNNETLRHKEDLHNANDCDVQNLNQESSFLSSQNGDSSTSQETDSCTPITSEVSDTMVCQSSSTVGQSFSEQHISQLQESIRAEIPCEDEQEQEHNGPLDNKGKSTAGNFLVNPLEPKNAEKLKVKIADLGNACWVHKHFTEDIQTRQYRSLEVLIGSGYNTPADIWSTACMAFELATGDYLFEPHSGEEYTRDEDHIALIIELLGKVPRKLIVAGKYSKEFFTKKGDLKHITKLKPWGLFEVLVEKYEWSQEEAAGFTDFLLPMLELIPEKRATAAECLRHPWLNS
Sequence of Serine/threonine-protein kinase Nek5 (Homo sapiens) (Q6P3R8 whole entry): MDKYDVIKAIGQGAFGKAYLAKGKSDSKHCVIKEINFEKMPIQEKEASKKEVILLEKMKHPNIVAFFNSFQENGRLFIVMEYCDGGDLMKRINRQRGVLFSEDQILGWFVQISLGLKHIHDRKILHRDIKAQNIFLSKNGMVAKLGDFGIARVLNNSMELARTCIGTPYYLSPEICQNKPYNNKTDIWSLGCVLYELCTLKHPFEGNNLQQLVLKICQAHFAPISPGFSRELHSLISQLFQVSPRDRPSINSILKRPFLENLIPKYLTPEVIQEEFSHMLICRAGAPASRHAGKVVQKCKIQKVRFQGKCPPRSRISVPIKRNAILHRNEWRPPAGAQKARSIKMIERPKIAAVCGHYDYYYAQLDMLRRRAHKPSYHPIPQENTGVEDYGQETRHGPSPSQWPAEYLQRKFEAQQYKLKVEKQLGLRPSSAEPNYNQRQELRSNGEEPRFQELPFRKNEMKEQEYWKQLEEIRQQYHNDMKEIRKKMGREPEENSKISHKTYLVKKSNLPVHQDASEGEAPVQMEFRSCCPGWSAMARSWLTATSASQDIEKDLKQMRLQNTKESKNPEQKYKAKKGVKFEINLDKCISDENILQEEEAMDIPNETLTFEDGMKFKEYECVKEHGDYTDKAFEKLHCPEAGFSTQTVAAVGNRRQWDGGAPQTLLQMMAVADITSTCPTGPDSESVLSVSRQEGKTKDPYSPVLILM
Sequence of Ribosomal protein S6 kinase delta-1 (Homo sapiens) (Q96S38 whole entry, the tested form may be a part): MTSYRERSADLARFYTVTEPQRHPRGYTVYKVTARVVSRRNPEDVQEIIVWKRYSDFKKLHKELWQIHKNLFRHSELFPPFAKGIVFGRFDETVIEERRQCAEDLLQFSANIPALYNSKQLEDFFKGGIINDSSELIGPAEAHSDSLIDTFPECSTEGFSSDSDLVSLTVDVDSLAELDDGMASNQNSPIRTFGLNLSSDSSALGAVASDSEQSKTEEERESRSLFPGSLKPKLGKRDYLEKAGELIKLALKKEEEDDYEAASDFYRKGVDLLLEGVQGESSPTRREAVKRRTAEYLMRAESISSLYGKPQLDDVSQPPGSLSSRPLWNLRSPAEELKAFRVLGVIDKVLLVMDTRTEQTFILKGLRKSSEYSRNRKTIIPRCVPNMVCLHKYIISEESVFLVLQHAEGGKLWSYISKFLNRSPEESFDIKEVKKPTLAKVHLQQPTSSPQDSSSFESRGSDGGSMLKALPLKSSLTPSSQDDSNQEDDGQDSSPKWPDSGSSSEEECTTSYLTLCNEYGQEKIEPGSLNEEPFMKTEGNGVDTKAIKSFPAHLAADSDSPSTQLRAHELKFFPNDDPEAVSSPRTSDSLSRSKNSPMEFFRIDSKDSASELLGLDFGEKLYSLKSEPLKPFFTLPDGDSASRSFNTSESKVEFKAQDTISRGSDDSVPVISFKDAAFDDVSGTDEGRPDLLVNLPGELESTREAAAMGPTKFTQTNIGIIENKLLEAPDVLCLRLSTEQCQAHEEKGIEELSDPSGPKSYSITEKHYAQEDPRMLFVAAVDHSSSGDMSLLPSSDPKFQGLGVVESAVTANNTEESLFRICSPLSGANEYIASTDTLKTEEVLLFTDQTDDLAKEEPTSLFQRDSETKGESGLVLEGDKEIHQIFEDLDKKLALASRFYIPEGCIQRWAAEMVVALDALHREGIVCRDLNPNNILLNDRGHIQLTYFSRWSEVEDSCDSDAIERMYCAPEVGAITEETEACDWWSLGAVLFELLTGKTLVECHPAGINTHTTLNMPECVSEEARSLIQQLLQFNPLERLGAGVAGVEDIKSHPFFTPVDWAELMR
Sequence of Calcium/calmodulin-dependent protein kinase type II subunit delta (Homo sapiens) (Q13557 whole entry, the tested form may be a part): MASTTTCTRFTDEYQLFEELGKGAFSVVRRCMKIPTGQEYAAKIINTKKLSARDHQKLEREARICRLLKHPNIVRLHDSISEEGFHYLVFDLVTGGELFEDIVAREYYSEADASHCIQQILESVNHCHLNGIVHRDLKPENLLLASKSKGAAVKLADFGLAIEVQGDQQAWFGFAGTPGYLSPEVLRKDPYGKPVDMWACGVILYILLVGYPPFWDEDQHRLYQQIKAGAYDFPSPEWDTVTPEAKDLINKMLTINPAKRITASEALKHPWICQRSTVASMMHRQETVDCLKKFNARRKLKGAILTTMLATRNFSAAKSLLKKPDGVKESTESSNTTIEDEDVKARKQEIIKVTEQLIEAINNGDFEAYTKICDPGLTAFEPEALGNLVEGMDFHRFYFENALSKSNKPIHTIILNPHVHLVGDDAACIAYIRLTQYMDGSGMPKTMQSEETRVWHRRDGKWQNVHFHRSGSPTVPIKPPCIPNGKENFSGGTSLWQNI

CNc1cc(Oc2cc(C(=O)Nc3cc(N4CCN(C)CC4)cc(C(F)(F)F)c3)ccc2C)ncn1 showed an inhibition [1] of -1.1% and an inhibition [2] of 15.7%.

For CCN1CCN(Cc2ccc(NC(=O)c3ccc(C)c(Oc4ccnc5[nH]ccc45)c3)cc2C(F)(F)F)CC1, the inhibition [3] was 13%, the inhibition [4] was “inactive” and the inhibition [5] was “inactive”. It also gave an inhibition [6] of 0.4%, an inhibition [7] of 4.4% and an inhibition [8] of -1.5%. It also gave an inhibition [9] of 94%.
